# Measured values: ChEMBL document CHEMBL5705899 (Biochem J, 2014)
# Active and inactive are the calls of the source. The calls are words filed in the database; no cut-off is given here.
# How the values were obtained:
# [1] = molecular target: Vascular endothelial growth factor receptor 1 (Homo sapiens) (UniProt P17948); assay: Inhibition of human VEGFR1 at 1 uM using polyEY as substrate in presence of 33P-ATP by ProQinase assay
# [2] = molecular target: MAP/microtubule affinity-regulating kinase 3 (Homo sapiens) (UniProt P27448); assay: Inhibition of recombinant human N-terminal His6-tagged MARK3 (2 to 729 residues) expressed in baculovirus infected Sf21 cells assessed as remaining activity at 1 uM using CHKtide as substrate incubated for 30 mins in presence of [gamma-33P]ATP by filter binding method relative to control
# [3] = molecular target: MAP kinase-activated protein kinase 3 (Homo sapiens) (UniProt Q16644); assay: Inhibition of recombinant human N-terminal GST-tagged MAPKAPK3 (2 to 382 residues) expressed in Escherichia coli assessed as remaining activity at 1 uM using KKLNRTLSVA as substrate incubated for 30 mins in presence of [gamma-33P]ATP by filter binding method relative to control
# [4] = molecular target: DNA-dependent protein kinase catalytic subunit (Homo sapiens) (UniProt P78527); assay: Inhibition of human DNPK1 at 1 uM using RBER-GSK3 as substrate in presence of 33P-ATP by ProQinase assay
# [5] = molecular target: High affinity nerve growth factor receptor (Homo sapiens) (UniProt P04629); assay: Inhibition of recombinant human N-terminal His6-tagged TrkA (441 to 760 residues) expressed in baculovirus infected Sf21 cells assessed as remaining activity at 1 uM using Poly(Glu,Tyr) as substrate incubated for 30 mins in presence of [gamma-33P]ATP by filter binding method relative to control
# [6] = molecular target: Ribosomal protein S6 kinase alpha-6 (Homo sapiens) (UniProt Q9UK32); assay: Inhibition of human RPS6KA6 at 1 uM using RBER-GSK3 as substrate in presence of 33P-ATP by ProQinase assay
# [7] = molecular target: Interleukin-1 receptor-associated kinase 4 (Homo sapiens) (UniProt Q9NWZ3); assay: Inhibition of human IRAK4 at 1 uM using RB-CTF as substrate in presence of 33P-ATP by ProQinase assay
# [8] = molecular target: cGMP-dependent protein kinase 1 (Homo sapiens) (UniProt Q13976); assay: Inhibition of human PRKG1 at 1 uM using 3xChocktide-PKC as substrate in presence of 33P-ATP by ProQinase assay
# [9] = molecular target: CDK4/Cyclin D3 (Homo sapiens) (UniProt P11802+P30281); assay: Inhibition of human CDK4/CycD3 at 1 uM using RBER-CHKtide as substrate in presence of 33P-ATP by ProQinase assay; assay type: protein-complex assay
# [10] = molecular target: Mitogen-activated protein kinase kinase kinase kinase 2 (Homo sapiens) (UniProt Q12851); assay: Inhibition of recombinant human N-terminal His6-tagged GCK (2 to 812 residues) expressed in baculovirus infected Sf21 cells assessed as remaining activity at 1 uM using MBP as substrate incubated for 30 mins in presence of [gamma-33P]ATP by filter binding method relative to control
# [11] = molecular target: Phosphorylase b kinase gamma catalytic chain, skeletal muscle/heart isoform (Homo sapiens) (UniProt Q16816); assay: Inhibition of recombinant human N-terminal GST-tagged PHKgamma1 (2 to 297 residues) expressed in Escherichia coli assessed as remaining activity at 1 uM using phosphorylase b peptide as substrate incubated for 30 mins in presence of [gamma-33P]ATP by filter binding method relative to control
# [12] = molecular target: Interleukin-1 receptor-associated kinase 1 (Homo sapiens) (UniProt P51617); assay: Inhibition of recombinant human N-terminal GST-tagged IRAK1 (1 to 712 residues) expressed in baculovirus infected Sf21 cells assessed as remaining activity at 1 uM using MBP as substrate incubated for 30 mins in presence of [gamma-33P]ATP by filter binding method relative to control
# [13] = molecular target: Phosphatidylinositol 3-kinase C2 domain-containing subunit gamma (Homo sapiens) (UniProt O75747); assay: Inhibition of PI3KC2gamma (unknown origin) at 1 uM
# [14] = molecular target: Serine/threonine-protein kinase tousled-like 1 (Homo sapiens) (UniProt Q9UKI8); assay: Inhibition of human TLK1 at 1 uM using RB-CTF as substrate in presence of 33P-ATP by ProQinase assay
# [15] = molecular target: Leukocyte tyrosine kinase receptor (Homo sapiens) (UniProt P29376); assay: Inhibition of human LTK at 1 uM using polyEY as substrate in presence of 33P-ATP by ProQinase assay
# [16] = molecular target: Serine/threonine-protein kinase 4 (Homo sapiens) (UniProt Q13043); assay: Inhibition of human MST1 at 1 uM using RB-CTF as substrate in presence of 33P-ATP by ProQinase assay
# [17] = molecular target: Dual specificity mitogen-activated protein kinase kinase 1 (Homo sapiens) (UniProt Q02750); assay: Inhibition of human MEK1 at 1 uM using ERK2-KR as substrate in presence of 33P-ATP by ProQinase assay
# [18] = molecular target: Protein kinase C eta type (Homo sapiens) (UniProt P24723); assay: Inhibition of human PKCeta at 1 uM using histon H2B as substrate in presence of 33P-ATP by ProQinase assay
# [19] = molecular target: Mitogen-activated protein kinase kinase kinase 3 (Homo sapiens) (UniProt Q99759); assay: Inhibition of human MEKK3 at 1 uM using casein as substrate in presence of 33P-ATP by ProQinase assay
# [20] = molecular target: STE20-like serine/threonine-protein kinase (Homo sapiens) (UniProt Q9H2G2); assay: Inhibition of human SLK at 1 uM using RB-S6P as substrate in presence of 33P-ATP by ProQinase assay
# [21] = molecular target: Phosphatidylinositol 4,5-bisphosphate 3-kinase catalytic subunit beta isoform (Homo sapiens, UniProt P42338); assay: Inhibition of PI3Kbeta (unknown origin) using PtdIns(4,5)P2 as substrate preincubated for 20 mins followed by substrate addition and measured after 80 mins by Kinase-Glo assay
# [22] = molecular target: MAP kinase-activated protein kinase 2 (Homo sapiens) (UniProt P49137); assay: Inhibition of human MAPKAPK2 at 1 uM using RBER-CHKtide as substrate in presence of 33P-ATP by ProQinase assay
# [23] = molecular target: Serine/threonine-protein kinase 3 (Homo sapiens) (UniProt Q13188); assay: Inhibition of human MST2 at 1 uM using RB-CTF as substrate in presence of 33P-ATP by ProQinase assay
# [24] = molecular target: Proto-oncogene tyrosine-protein kinase ROS (Homo sapiens) (UniProt P08922); assay: Inhibition of human ROS at 1 uM using poly(Ala,Glu,Lys,Tyr) as substrate in presence of 33P-ATP by ProQinase assay
# [25] = molecular target: Serine/threonine-protein kinase TAO2 (Homo sapiens) (UniProt Q9UL54); assay: Inhibition of human TAOK2 at 1 uM using casein as substrate in presence of 33P-ATP by ProQinase assay
# [26] = molecular target: Dual specificity tyrosine-phosphorylation-regulated kinase 4 (Homo sapiens) (UniProt Q9NR20); assay: Inhibition of human DYRK4 at 1 uM using RBER-CHKtide as substrate in presence of 33P-ATP by ProQinase assay
# Chain of Serine/threonine-protein kinase TAO2 (Homo sapiens) (Q9UL54 whole entry): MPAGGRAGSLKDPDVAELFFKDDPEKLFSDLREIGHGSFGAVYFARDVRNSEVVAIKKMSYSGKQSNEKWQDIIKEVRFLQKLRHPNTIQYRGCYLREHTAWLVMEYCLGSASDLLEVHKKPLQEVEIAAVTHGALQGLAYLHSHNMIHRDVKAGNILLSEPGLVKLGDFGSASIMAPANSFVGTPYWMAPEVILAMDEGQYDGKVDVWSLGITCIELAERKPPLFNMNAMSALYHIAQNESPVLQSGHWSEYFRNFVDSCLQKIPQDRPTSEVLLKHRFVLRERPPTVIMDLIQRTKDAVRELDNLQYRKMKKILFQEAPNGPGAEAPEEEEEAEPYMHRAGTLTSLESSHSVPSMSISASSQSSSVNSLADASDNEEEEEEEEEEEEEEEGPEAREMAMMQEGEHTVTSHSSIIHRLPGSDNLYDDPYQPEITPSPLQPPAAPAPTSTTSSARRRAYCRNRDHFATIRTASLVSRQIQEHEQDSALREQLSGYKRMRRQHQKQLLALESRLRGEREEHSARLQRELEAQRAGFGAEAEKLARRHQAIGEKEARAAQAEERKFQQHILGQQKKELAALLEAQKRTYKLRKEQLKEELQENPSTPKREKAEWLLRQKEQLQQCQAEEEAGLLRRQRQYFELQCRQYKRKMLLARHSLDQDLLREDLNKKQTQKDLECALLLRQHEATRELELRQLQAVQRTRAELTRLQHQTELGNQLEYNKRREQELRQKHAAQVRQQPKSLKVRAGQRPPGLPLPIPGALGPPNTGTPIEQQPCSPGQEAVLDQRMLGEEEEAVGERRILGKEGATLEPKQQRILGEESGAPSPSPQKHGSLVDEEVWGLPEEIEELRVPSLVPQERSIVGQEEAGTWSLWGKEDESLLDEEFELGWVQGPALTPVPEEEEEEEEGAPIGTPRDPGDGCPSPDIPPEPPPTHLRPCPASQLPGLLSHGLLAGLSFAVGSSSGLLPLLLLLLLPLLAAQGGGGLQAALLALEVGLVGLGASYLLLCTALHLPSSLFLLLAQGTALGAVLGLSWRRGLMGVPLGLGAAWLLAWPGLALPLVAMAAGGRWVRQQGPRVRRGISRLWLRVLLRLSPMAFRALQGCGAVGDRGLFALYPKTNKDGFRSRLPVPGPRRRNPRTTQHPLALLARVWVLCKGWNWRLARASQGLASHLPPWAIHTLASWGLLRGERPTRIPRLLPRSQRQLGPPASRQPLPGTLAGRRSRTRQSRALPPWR
# Chain of Serine/threonine-protein kinase 4 (Homo sapiens) (Q13043 whole entry): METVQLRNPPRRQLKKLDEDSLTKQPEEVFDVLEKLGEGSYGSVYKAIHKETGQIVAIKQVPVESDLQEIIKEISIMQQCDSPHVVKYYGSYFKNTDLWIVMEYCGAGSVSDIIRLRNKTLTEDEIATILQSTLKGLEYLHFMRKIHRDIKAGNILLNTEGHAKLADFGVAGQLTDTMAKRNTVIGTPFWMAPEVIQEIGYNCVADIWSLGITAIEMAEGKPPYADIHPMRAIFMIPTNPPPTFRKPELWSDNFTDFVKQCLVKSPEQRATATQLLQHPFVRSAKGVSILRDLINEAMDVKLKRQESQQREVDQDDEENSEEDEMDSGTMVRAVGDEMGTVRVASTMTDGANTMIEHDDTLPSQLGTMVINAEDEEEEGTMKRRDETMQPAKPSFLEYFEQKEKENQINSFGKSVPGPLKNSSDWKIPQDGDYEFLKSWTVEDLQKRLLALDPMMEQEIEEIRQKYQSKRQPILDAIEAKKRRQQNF
# Chain of STE20-like serine/threonine-protein kinase (Homo sapiens) (Q9H2G2 whole entry, looked up, canonical isoform): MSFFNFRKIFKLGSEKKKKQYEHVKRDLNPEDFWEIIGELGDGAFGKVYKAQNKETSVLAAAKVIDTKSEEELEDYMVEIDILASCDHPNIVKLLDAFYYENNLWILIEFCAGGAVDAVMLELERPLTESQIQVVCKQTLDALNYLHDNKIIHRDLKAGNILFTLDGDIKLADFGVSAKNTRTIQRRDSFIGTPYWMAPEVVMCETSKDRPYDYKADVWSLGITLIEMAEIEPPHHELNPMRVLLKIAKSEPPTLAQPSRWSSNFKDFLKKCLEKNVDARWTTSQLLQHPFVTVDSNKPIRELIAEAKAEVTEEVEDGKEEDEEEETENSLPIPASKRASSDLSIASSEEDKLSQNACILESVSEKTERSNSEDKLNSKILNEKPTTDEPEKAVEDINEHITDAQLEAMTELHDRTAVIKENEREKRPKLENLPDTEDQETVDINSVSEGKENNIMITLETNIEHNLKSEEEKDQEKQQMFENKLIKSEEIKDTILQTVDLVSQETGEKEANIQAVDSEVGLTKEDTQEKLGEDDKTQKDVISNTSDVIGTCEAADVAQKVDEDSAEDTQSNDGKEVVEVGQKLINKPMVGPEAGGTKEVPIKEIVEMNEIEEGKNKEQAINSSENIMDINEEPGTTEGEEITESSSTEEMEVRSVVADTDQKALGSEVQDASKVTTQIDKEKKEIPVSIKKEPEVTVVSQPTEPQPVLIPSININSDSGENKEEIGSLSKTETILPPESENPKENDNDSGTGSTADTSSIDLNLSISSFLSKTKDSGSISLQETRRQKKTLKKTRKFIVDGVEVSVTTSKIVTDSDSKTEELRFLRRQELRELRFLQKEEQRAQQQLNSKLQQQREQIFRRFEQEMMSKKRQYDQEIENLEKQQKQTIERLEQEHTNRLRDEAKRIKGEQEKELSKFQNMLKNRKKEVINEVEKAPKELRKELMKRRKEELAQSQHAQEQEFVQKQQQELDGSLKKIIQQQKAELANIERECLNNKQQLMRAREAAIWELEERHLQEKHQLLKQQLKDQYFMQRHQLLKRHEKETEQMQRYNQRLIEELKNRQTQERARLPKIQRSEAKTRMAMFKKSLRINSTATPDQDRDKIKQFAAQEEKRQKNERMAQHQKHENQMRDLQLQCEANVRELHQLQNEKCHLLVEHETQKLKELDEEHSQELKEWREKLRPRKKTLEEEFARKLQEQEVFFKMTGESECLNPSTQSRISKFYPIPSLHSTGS
# Chain of High affinity nerve growth factor receptor (Homo sapiens) (P04629 33-796 limits assumed): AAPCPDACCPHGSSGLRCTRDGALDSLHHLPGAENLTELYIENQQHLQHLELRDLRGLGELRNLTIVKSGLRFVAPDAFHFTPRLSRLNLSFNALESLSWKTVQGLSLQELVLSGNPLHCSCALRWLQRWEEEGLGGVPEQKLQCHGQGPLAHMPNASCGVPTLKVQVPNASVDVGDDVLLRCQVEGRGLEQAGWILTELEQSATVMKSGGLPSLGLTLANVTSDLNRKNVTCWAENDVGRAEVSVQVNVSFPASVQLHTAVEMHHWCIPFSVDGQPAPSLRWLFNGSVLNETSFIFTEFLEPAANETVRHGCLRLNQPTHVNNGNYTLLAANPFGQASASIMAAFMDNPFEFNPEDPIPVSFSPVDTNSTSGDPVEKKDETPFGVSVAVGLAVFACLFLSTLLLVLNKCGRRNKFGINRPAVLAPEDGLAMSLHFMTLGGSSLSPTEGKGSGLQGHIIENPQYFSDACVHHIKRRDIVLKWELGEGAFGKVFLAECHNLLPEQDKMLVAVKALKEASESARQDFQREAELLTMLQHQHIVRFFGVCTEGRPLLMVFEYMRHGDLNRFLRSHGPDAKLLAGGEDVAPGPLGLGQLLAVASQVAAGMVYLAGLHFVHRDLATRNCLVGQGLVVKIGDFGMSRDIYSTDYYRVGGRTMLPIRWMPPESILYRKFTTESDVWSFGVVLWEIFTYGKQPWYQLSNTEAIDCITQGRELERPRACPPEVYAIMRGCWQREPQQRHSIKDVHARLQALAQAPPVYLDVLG
# Chain of Phosphorylase b kinase gamma catalytic chain, skeletal muscle/heart isoform (Homo sapiens) (Q16816 whole entry, looked up, the tested form may be a part, canonical isoform): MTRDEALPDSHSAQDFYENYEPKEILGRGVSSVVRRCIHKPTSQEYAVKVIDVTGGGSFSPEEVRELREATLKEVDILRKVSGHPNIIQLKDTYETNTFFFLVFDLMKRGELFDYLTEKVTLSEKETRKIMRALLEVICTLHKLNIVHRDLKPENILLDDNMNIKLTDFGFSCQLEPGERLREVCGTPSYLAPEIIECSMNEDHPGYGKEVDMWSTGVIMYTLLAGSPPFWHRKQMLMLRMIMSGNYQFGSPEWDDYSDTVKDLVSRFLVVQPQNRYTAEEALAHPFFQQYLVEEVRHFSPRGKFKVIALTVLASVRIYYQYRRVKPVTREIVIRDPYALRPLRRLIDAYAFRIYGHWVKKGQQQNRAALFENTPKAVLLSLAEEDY
# Chain of MAP kinase-activated protein kinase 2 (Homo sapiens) (P49137 whole entry, looked up): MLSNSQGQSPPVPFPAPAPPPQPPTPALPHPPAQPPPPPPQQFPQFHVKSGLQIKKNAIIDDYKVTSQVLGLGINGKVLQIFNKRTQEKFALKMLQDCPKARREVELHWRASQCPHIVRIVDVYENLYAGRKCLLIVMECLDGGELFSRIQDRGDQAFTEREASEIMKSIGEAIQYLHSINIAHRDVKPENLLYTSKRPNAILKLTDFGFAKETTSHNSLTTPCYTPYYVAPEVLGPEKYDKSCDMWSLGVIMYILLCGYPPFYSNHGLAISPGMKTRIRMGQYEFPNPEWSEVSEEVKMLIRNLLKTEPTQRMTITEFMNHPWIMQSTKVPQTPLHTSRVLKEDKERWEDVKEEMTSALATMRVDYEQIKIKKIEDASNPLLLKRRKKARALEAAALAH
# Chain of Interleukin-1 receptor-associated kinase 4 (Homo sapiens) (Q9NWZ3 whole entry): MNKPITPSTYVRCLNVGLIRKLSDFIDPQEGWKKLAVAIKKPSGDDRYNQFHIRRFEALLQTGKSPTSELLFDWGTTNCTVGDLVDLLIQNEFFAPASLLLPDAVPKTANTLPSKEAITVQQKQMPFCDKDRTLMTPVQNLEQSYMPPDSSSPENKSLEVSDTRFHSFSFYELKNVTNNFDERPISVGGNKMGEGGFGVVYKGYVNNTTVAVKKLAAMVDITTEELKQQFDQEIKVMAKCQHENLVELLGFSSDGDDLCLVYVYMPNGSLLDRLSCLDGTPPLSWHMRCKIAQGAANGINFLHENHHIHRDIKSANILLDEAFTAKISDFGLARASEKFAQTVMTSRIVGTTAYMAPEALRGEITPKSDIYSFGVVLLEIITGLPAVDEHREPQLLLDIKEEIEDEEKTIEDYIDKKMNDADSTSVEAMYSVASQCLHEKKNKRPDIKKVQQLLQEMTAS
smiles,measurement,setting,value
CC(C)(O)CNc1ncc(-c2ccnc(Nc3ccnc(Cl)c3)n2)c(CC2CC2)n1,inhibition,[1],inactive
same,Activity,[2],109%
same,Activity,[3],115%
same,inhibition,[4],inactive
same,Activity,[5],70%
same,inhibition,[6],inactive
same,inhibition,[7],inactive
same,inhibition,[8],inactive
same,inhibition,[9],inactive
same,Activity,[10],104%
same,Activity,[11],105%
same,Activity,[12],112%
same,inhibition,[13],inactive
same,inhibition,[14],inactive
same,inhibition,[15],inactive
same,inhibition,[16],inactive
same,inhibition,[17],inactive
same,inhibition,[18],inactive
same,inhibition,[19],inactive
same,inhibition,[20],inactive
same,IC50,[21],21.4 µM
same,inhibition,[22],inactive
same,inhibition,[23],inactive
same,inhibition,[24],inactive
same,inhibition,[25],inactive
same,inhibition,[26],inactive
